From ChEMBL document CHEMBL5500393, “Discovery and Optimization of Novel SaFabI Inhibitors as Specific Therapeutic Agents for MRSA Infection” (J Med Chem, 2024)
In brackets after ≈: the same amount, converted by molar mass. Activity calls are given as the source filed them. No cut-off for these calls is given here.

Key:
Staphylococcus aureus [1] = test: Antimicrobial activity against […] Staphylococcus aureus ATCC33591 measured after 24 hrs by CLSI protocol based microdilution method; type: functional
Enterococcus faecalis = test: Antimicrobial activity against Enterococcus faecalis ATCC29212 measured after 24 hrs by CLSI protocol based microdilution method; type: functional
Staphylococcus aureus [2] = test: Antimicrobial activity against Staphylococcus aureus measured after 24 hrs by CLSI protocol based microdilution method; type: functional
Staphylococcus aureus [3] = test: Antimicrobial activity against methicillin-susceptible Staphylococcus aureus ATCC29213 measured after 24 hrs by CLSI protocol based microdilution method; type: functional
HepG2 [4] = test: Cytotoxicity against human HepG2 cells assessed as survival rate at 800 uM measured after 48 hrs by CCK-8 method relative to control; type: functional; settings: read-out: Survival
Staphylococcus aureus [5] = test: Antimicrobial activity against […] Staphylococcus aureus USA300 measured after 24 hrs by CLSI protocol based microdilution method; type: functional
Staphylococcus aureus [6] = test: Antimicrobial activity against […] Staphylococcus aureus ATCC43300 measured after 24 hrs by CLSI protocol based microdilution method; type: functional
[7] = Inhibition of N-terminal his 6 tagged Acinetobacter baumannii Fabi (1 to 804 residues) expressed in Escherichia coli BL21 incubated for 30 mins in presence of NADH by fluorescence based microplate reader analysis
[8] = target: T1, Enoyl-[acyl-carrier-protein] reductase [NADPH] FabI (Staphylococcus aureus) (UniProt Q6GI75); test: Inhibition of N-terminal his 6 tagged Staphylococcus aureus Fabi (1 to […] residues) expressed in Escherichia coli BL21 at 10 uM incubated for 30 mins in presence of NADPH by fluorescence based microplate reader analysis relative to control
T1 sequence (whole entry): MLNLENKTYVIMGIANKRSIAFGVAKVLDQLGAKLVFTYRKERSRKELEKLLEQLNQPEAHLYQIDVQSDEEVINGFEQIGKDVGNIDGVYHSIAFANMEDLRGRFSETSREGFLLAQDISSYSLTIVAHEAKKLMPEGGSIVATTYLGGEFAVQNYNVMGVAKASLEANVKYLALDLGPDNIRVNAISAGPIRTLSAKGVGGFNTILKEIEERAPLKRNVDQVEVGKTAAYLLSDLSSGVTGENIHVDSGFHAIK

[9] = target: T1, Enoyl-[acyl-carrier-protein] reductase [NADPH] FabI (Staphylococcus aureus); test: Inhibition of N-terminal his 6 tagged Staphylococcus aureus Fabi (1 to […] residues) expressed in Escherichia coli BL21 at 1 uM incubated for 30 mins in presence of NADPH by fluorescence based microplate reader analysis relative to control
[10] = Cytotoxicity against HEK293 cells assessed as survival rate at 400 uM measured after 48 hrs by CCK-8 method relative to control; type: toxicity, cell-based; settings: human, read-out: Survival
[11] = Hemolytic activity in sheep erythrocytes assessed as hemolysis at 64 ug/ml incubated for 1 hr by microplate reader based analysis relative to control; type: toxicity, cell-based, Ovis aries, Erythrocyte; settings: at 64 µg/mL, read-out: Activity
[12] = Selectivity index, ratio of HC50 for sheep erythrocytes to MIC for Staphylococcus aureus; type: toxicity; settings: read-out: Selectivity Index
Candida albicans = test: Antimicrobial activity against Candida albicans SC5314 measured after 48 hrs by CLSI protocol based microdilution method; type: functional
[13] = Cytotoxicity against HEK293 cells assessed as survival rate at 800 uM measured after 48 hrs by CCK-8 method relative to control; type: toxicity, cell-based; settings: human, read-out: Survival
[14] = Inhibition of N-terminal his 6 tagged Escherichia coli Fabi (1 to 789 residues) expressed in Escherichia coli BL21 incubated for 30 mins in presence of NADH by fluorescence based microplate reader analysis
Acinetobacter baumannii = test: Antimicrobial activity against Acinetobacter baumannii ATCC19606 measured after 24 hrs by CLSI protocol based microdilution method; type: functional
Enterococcus faecium = test: Antimicrobial activity against Enterococcus faecium ATCC19434 measured after 24 hrs by CLSI protocol based microdilution method; type: functional
HepG2 [15] = test: Cytotoxicity against human HepG2 cells assessed as survival rate at 400 uM measured after 48 hrs by CCK-8 method relative to control; type: functional; settings: read-out: Survival
[16] = Hemolytic activity in sheep erythrocytes assessed as hemolysis at 128 ug/ml incubated for 1 hr by microplate reader based analysis relative to control; type: toxicity, cell-based, Ovis aries, Erythrocyte; settings: at 128 µg/mL, read-out: Activity
[17] = Hemolytic activity in sheep erythrocytes assessed as hemolysis incubated for 1 hr by microplate reader based analysis; type: toxicity, cell-based, Ovis aries, Erythrocyte
Staphylococcus aureus [18] = test: Antimicrobial activity against methicillin-susceptible Staphylococcus aureus ATCC25923 measured after 24 hrs by CLSI protocol based microdilution method; type: functional
Pseudomonas aeruginosa = test: Antimicrobial activity against Pseudomonas aeruginosa PAO1 measured after 24 hrs by CLSI protocol based microdilution method; type: functional
Staphylococcus aureus [19] = test: Antimicrobial activity against […] Staphylococcus aureus NRS271 measured after 24 hrs by CLSI protocol based microdilution method; type: functional
Escherichia coli = test: Antimicrobial activity against Escherichia coli ATCC25922 measured after 24 hrs by CLSI protocol based microdilution method; type: functional
[20] = Hemolytic activity in sheep erythrocytes assessed as hemolysis at 256 ug/ml incubated for 1 hr by microplate reader based analysis relative to control; type: toxicity, cell-based, Ovis aries, Erythrocyte; settings: at 256 µg/mL, read-out: Activity
[21] = target: T2, Enoyl-[acyl-carrier-protein] reductase [NADPH] FabI (Staphylococcus aureus, UniProt Q6GI75); test: Inhibition of N-terminal his 6 tagged Staphylococcus aureus Fabi (1 to […] residues) expressed in Escherichia coli BL21 incubated for 30 mins in presence of NADPH by fluorescence based microplate reader analysis
T2 sequence (Q6GI75 whole entry): T1 sequence (whole entry)

Staphylococcus aureus [22] = test: In vivo antibacterial activity against methicilin-resistant Staphylococcus aureus ATCC33591 infected in BALB/c mouse skin infection model assessed as reduction in number of inflammatory cells at 20 mg/kg administered daily for 4 days by H and E staining based analysis; type: functional, organism-based; settings: time 4.0 day
Staphylococcus aureus [23] = test: In vivo antibacterial activity against methicilin-resistant Staphylococcus aureus ATCC33591 infected in BALB/c mouse skin infection model assessed as restoration of cell morphology at 20 mg/kg administered daily for 4 days by H and E staining based analysis; type: functional, organism-based; settings: time 4.0 day
Staphylococcus aureus [24] = test: In vivo antibacterial activity against methicilin-resistant Staphylococcus aureus ATCC33591 infected in BALB/c mouse skin infection model assessed as reduction in area of injury at 20 mg/kg administered daily for 4 days by H and E staining based analysis; type: functional, organism-based; settings: time 4.0 day
Staphylococcus aureus [25] = test: In vivo antibacterial activity against methicilin-resistant Staphylococcus aureus ATCC33591 infected in BALB/c mouse skin infection model assessed as decrease in lesion size at 10 mg/kg administered daily for 4 days (reference value: 43.4 mm2); type: functional; settings: time 4 day

CCn1c(C2CC(=O)N(c3cccc(Br)c3C)C2)nc2ccccc21 (centres undefined)
MIC (Staphylococcus aureus [1]): 1 µg/mL (≈ 2.51 µM)
MIC (Enterococcus faecalis): > 32 µg/mL
MIC (Staphylococcus aureus [2]): 1 µg/mL (≈ 2.51 µM)
MIC (Staphylococcus aureus [3]): 2 µg/mL (≈ 5.02 µM)
viability at 800 µM (HepG2 [4]): > 65%
MIC (Staphylococcus aureus [5]): 1 µg/mL (≈ 2.51 µM)
MIC (Staphylococcus aureus [6]): 2 µg/mL (≈ 5.02 µM)
IC50 [7]: 266 nM
inhibition [8]: 96.3%
inhibition [9]: 82.5%
viability at 48 h, 400 µM [10]: > 70%
hemolysis at 1 h, 64 ug/ml [11]: 4.3%
selectivity ratio [12]: > 128
MIC (Candida albicans): > 32 µg/mL
viability at 48 h, 800 µM [13]: > 65%
IC50 [14]: 35.9 nM
MIC (Acinetobacter baumannii): > 32 µg/mL
MIC (Enterococcus faecium): > 32 µg/mL
viability at 400 µM (HepG2 [15]): > 70%
hemolysis at 1 h, 128 ug/ml [16]: 7.5%
HC50 at 1 h [17]: > 256 µg/mL
MIC (Staphylococcus aureus [18]): 2 µg/mL (≈ 5.02 µM)
MIC (Pseudomonas aeruginosa): > 32 µg/mL
MIC (Staphylococcus aureus [19]): 2 µg/mL (≈ 5.02 µM)
MIC (Escherichia coli): > 32 µg/mL
hemolysis at 1 h, 256 ug/ml [20]: 12.7%
IC50 [21]: 342 nM

Cn1c(C2CC(=O)N(c3cccc(Cl)c3Cl)C2)nc2ccccc21 (centres undefined)
MIC (Staphylococcus aureus [1]): 4 µg/mL (≈ 11.1 µM)
MIC (Enterococcus faecalis): > 32 µg/mL
MIC (Staphylococcus aureus [2]): 2 µg/mL (≈ 5.55 µM)
MIC (Staphylococcus aureus [3]): 2 µg/mL (≈ 5.55 µM)
viability at 800 µM (HepG2 [4]): > 75%
MIC (Staphylococcus aureus [5]): 2 µg/mL (≈ 5.55 µM)
MIC (Staphylococcus aureus [6]): 2 µg/mL (≈ 5.55 µM)
IC50 [7]: 266 nM
inhibition [8]: 98.8%
inhibition [9]: 73.7%
viability at 48 h, 400 µM [10]: > 70%
hemolysis at 1 h, 64 ug/ml [11]: 2.4%
selectivity ratio [12]: > 64
MIC (Candida albicans): > 32 µg/mL
viability at 48 h, 800 µM [13]: > 75%
IC50 [14]: 35.9 nM
MIC (Acinetobacter baumannii): > 32 µg/mL
MIC (Enterococcus faecium): > 32 µg/mL
viability at 400 µM (HepG2 [15]): > 70%
hemolysis at 1 h, 128 ug/ml [16]: 4.3%
HC50 at 1 h [17]: > 256 µg/mL
MIC (Staphylococcus aureus [18]): 2 µg/mL (≈ 5.55 µM)
MIC (Pseudomonas aeruginosa): > 32 µg/mL
MIC (Staphylococcus aureus [19]): 4 µg/mL (≈ 11.1 µM)
MIC (Escherichia coli): > 32 µg/mL
hemolysis at 1 h, 256 ug/ml [20]: 7.5%
IC50 [21]: 495 nM

CC(=O)NC[C@H]1CN(c2ccc(N3CCOCC3)c(F)c2)C(=O)O1 [LINEZOLID]
Activity (Staphylococcus aureus [22]): inactive
Activity (Staphylococcus aureus [23]): inactive
MIC (Staphylococcus aureus [5]): 1 µg/mL (≈ 2.96 µM)
MIC (Candida albicans): > 32 µg/mL
Activity (Staphylococcus aureus [24]): inactive
Activity (Staphylococcus aureus [25]): 25.7 mm2
MIC (Acinetobacter baumannii): > 32 µg/mL
MIC (Enterococcus faecium): 2 µg/mL (≈ 5.93 µM)
MIC (Pseudomonas aeruginosa): > 32 µg/mL
MIC (Staphylococcus aureus [19]): > 32 µg/mL
MIC (Escherichia coli): > 32 µg/mL

Cn1c(C2CC(=O)N(c3cccc(Br)c3F)C2)nc2ccccc21 (centres undefined)
MIC (Staphylococcus aureus [1]): 4 µg/mL (≈ 10.3 µM)
MIC (Enterococcus faecalis): > 32 µg/mL
MIC (Staphylococcus aureus [3]): 2 µg/mL (≈ 5.15 µM)
MIC (Staphylococcus aureus [5]): 4 µg/mL (≈ 10.3 µM)
MIC (Staphylococcus aureus [6]): 4 µg/mL (≈ 10.3 µM)
IC50 [7]: 266 nM
inhibition [8]: 95.3%
inhibition [9]: 71.2%
MIC (Candida albicans): > 32 µg/mL
IC50 [14]: 35.9 nM
MIC (Acinetobacter baumannii): > 32 µg/mL
MIC (Enterococcus faecium): > 32 µg/mL
MIC (Staphylococcus aureus [18]): 2 µg/mL (≈ 5.15 µM)
MIC (Pseudomonas aeruginosa): > 32 µg/mL
MIC (Staphylococcus aureus [19]): 8 µg/mL (≈ 20.6 µM)
MIC (Escherichia coli): > 32 µg/mL
IC50 [21]: 482 nM

Cc1c(Cl)cccc1N1CC(c2nc3ccccc3n2C)CC1=O (centres undefined)
MIC (Staphylococcus aureus [1]): 2 µg/mL (≈ 5.89 µM)
MIC (Enterococcus faecalis): > 32 µg/mL
MIC (Staphylococcus aureus [2]): 2 µg/mL (≈ 5.89 µM)
MIC (Staphylococcus aureus [3]): 2 µg/mL (≈ 5.89 µM)
viability at 800 µM (HepG2 [4]): > 65%
MIC (Staphylococcus aureus [5]): 4 µg/mL (≈ 11.8 µM)
MIC (Staphylococcus aureus [6]): 2 µg/mL (≈ 5.89 µM)
IC50 [7]: 266 nM
inhibition [8]: 99.1%
inhibition [9]: 76.8%
viability at 48 h, 400 µM [10]: > 70%
hemolysis at 1 h, 64 ug/ml [11]: 3.8%
selectivity ratio [12]: > 64
MIC (Candida albicans): > 32 µg/mL
viability at 48 h, 800 µM [13]: > 65%
IC50 [14]: 35.9 nM
MIC (Acinetobacter baumannii): > 32 µg/mL
MIC (Enterococcus faecium): > 32 µg/mL
viability at 400 µM (HepG2 [15]): > 70%
hemolysis at 1 h, 128 ug/ml [16]: 6.9%
HC50 at 1 h [17]: > 256 µg/mL
MIC (Staphylococcus aureus [18]): 2 µg/mL (≈ 5.89 µM)
MIC (Pseudomonas aeruginosa): > 32 µg/mL
MIC (Staphylococcus aureus [19]): 4 µg/mL (≈ 11.8 µM)
MIC (Escherichia coli): > 32 µg/mL
hemolysis at 1 h, 256 ug/ml [20]: 13.2%
IC50 [21]: 429 nM
